The values that follow come from PubChem BioAssay AID1259408 (Genetic Toxicology Data Bank (GENE-TOX), 2018).

Activity calls are given as the source filed them. No rule for the calls is given here.

In the series the test system is GENE-TOX genotoxicity assays, various organisms and cells. Kind of series: GENE-TOX mutagenicity studies. To be noted: for call: Assay Type: In vivo carcinogenicity studies.
[1] abbreviates: Species/Cell Type: Salmonella typhimurium (one or more of the five standard strains: TA98, TA100, TA1535, TA1537, and TA1538), Assay Type: Histidine reverse gene mutation, Ames assay, Assay Code: SAL+, Evaluation Type: Evaluation A (Pre-1980).
The mark [2] stands for this setting: Species/Cell Type: Allium cepa, Assay Type: Chromosome aberrations, Assay Code: ALC-, Evaluation Type: Evaluation A (Pre-1980).
[3] abbreviates: Species/Cell Type: Nonhuman, Assay Code: CCG+, Evaluation Type: Evaluation A (Pre-1980).
Setting [4] is: Species/Cell Type: Nonhuman, Assay Type: Sister-chromatid exchange (SCE) in vitro, Assay Code: SC2+D, Dose Response: With dose response, Evaluation Type: Evaluation B (Post-1980).
[5] abbreviates: Species/Cell Type: Mammalian polychromatic erythrocytes, Assay Type: Micronucleus test, chromosome aberrations, Assay Code: MNTT, Evaluation Type: Evaluation B (Post-1980).
Where [6] appears, read: Species/Cell Type: Salmonella typhimurium (one or more of the five standard strains: TA98, TA100, TA1535, TA1537, and TA1538), Assay Type: Histidine reverse gene mutation, Ames assay, Assay Code: SAL+*, Activation: With metabolic activation, Evaluation Type: Evaluation A (Pre-1980).
[7] abbreviates: Species/Cell Type: Nonhuman, Assay Type: Sister-chromatid exchange (SCE) in vitro, Assay Code: SC2T, Evaluation Type: Evaluation B (Post-1980).
[8] abbreviates: Species/Cell Type: Salmonella typhimurium (one or more of the five standard strains: TA98, TA100, TA1535, TA1537, and TA1538), Assay Type: Histidine reverse gene mutation, Ames assay, Assay Code: SALT, Evaluation Type: Evaluation A (Pre-1980).
Setting [9] is: Species/Cell Type: Chinese hamster ovary (CHO) cells, Assay Type: Forward gene mutation at the HPRT locus, Assay Code: CHO+, Evaluation Type: Evaluation B (Post-1980).
The mark [10] stands for this setting: Species/Cell Type: Saccharomyces cerevisiae, Assay Type: Mitotic recombination or gene conversion, Assay Code: YEH-, Evaluation Type: Evaluation A (Pre-1980).
Setting [11] is: Species/Cell Type: Nonhuman, Assay Type: Sister-chromatid exchange (SCE) in vitro, Assay Code: SC2+, Evaluation Type: Evaluation B (Post-1980).

On to `COc1ccc2c(c1)CCC(c1ccccc1)=C2c1ccc(OCCN2CCCC2)cc1`, for which the mutagenic call (Species/Cell Type: Rabbit, Sex: Male, Assay Type: Sperm morphology, Assay Code: SPR+, Evaluation Type: Evaluation A (Pre-1980)) was “active; positive”.
Regarding `O=[N+]([O-])c1ccc(N2CC2)c2c1no[n+]2[O-]`, under setting [1], the mutagenic call was “active; positive”.
With `O=[N+]([O-])c1cccc(O)c1`, under setting [2], the mutagenic call was “inactive; negative”.
Turning to `CN(C)c1ccc(N=Nc2cccc(CCl)c2)cc1`, the mutagenic call (Species/Cell Type: Drosophila melanogaster, Assay Type: Sex-linked recessive lethal gene mutation, Assay Code: SRLT, Evaluation Type: Evaluation A (Pre-1980)) is “no conclusion”.
Take `[Be]=[O]`: the call under setting [3] was “active; positive”.
With `Nc1nc(-c2ccc([N+](=O)[O-])o2)cs1`, the mutagenic call is “active; positive” (Species/Cell Type: Escherichia coli WP2, Assay Type: Tryptophan reverse gene mutation, Assay Code: WP2+, Evaluation Type: Evaluation A (Pre-1980)); “inactive; negative” (Species/Cell Type: Escherichia coli WP2 UVRA, Assay Type: Tryptophan reverse gene mutation, Assay Code: WPU-, Evaluation Type: Evaluation A (Pre-1980)); “active; positive” under setting [4]; “active; positive” under setting [1].
Take `CCCCCCCCCCCC(=O)N(C)N=O`: under “Species/Cell Type: Saccharomyces cerevisiae, Assay Type: Reverse gene mutation, Assay Code: YER+, Evaluation Type: Evaluation A (Pre-1980)”, the mutagenic call is “active; positive”.
In the case of `CCNC(=O)/C=C(C)/C=C/C=C(C)/C=C/c1c(C)cc(OC)c(C)c1C`, the mutagenic call (Species/Cell Type: Mouse (C3H/10T1/2) cells, Assay Type: Cell transformation, Assay Code: CTH-, Evaluation Type: Evaluation A (Pre-1980)) was “inactive; negative”.
`[O][Cl+][O-]`: the mutagenic call under setting [5] is recorded as “no conclusion”.
On to `Cc1cccc2c1ccc1c3ccccc3ccc21`, for which the mutagenic call under setting [6] was “active; positive”.
As for `CCN(N=O)c1ccccc1`, the mutagenic call by setting is: (Species/Cell Type: Fischer rat embryo (RLV/1706) cells, Assay Type: Cell transformation, viral enhanced, Assay Code: CTR-, Evaluation Type: Evaluation A (Pre-1980)) “inactive; negative”; (Species/Cell Type: Mouse (BALB/c-3T3) cells, Assay Type: Cell transformation, Assay Code: CTB-, Evaluation Type: Evaluation A (Pre-1980)) “inactive; negative”; (Species/Cell Type: Syrian hamster embryo (SHE) cells, Assay Type: Cell transformation, clonal assay, Assay Code: CTC+, Evaluation Type: Evaluation A (Pre-1980)) “active; positive”.
On to `OCc1ccc(-c2ccccc2)cc1`, for which the mutagenic call was “no conclusion” (Species/Cell Type: Chinese hamster ovary (CHO) cells, Assay Type: Forward gene mutation at the HPRT locus, Assay Code: CHOT, Evaluation Type: Evaluation B (Post-1980)) and “active; positive” (Species/Cell Type: Mammalian polychromatic erythrocytes, Assay Type: Micronucleus test, chromosome aberrations, Assay Code: MNT+U, Dose Response: Unconfirmed positive response, Evaluation Type: Evaluation B (Post-1980)).
Consider `CCOC(=O)/C=C(C)/C=C/C=C(C)/C=C/c1c(C)cc(OC)c(C)c1C`, for which the mutagenic call is “active; positive” (Species/Cell Type: Human, Assay Type: Sister-chromatid exchange (SCE) in vitro, Assay Code: SC1+D, Dose Response: With dose response, Evaluation Type: Evaluation A (Pre-1980)); “no conclusion” under setting [5]; “no conclusion” under setting [7].
As for `COC12C(=O)N(C)C(=O)N(C)C1(OC)N(C)C(=O)N2C` (centres undefined), under setting [2], the mutagenic call was “inactive; negative”.
For the compound `O=C1C(c2[nH]c3ccccc3c2O)=Nc2ccccc21`, the mutagenic call (Species/Cell Type: Mammalian polychromatic erythrocytes, Assay Type: Micronucleus test, chromosome aberrations, Assay Code: MNT-, Evaluation Type: Evaluation B (Post-1980)) is “inactive; negative”.
On to `OCC(F)(F)F`, for which the mutagenic call under setting [8] is given as “no conclusion”.
`Nc1ccc(O)c2c1C(=O)c1ccccc1C2=O`: under setting [1], the mutagenic call is “active; positive”.
Turning to `Cc1c(C2(c3cc(C(C)C)c(O)c(Br)c3C)OS(=O)(=O)c3ccccc32)cc(C(C)C)c(O)c1Br`, the mutagenic call (Species/Cell Type: Bacillus subtilis (H17 vs M45), Assay Type: Rec-assay, spot test, DNA effects (bacterial DNA repair), Assay Code: REWT, Evaluation Type: Evaluation A (Pre-1980)) is recorded as “no conclusion”.
Take `CSCC[C@H](N)C(=O)O`: the mutagenic call by setting is: (Species/Cell Type: Mammalian polychromatic erythrocytes, Assay Type: Micronucleus test, chromosome aberrations, Assay Code: MNTT, Evaluation Type: Evaluation A (Pre-1980)) “no conclusion”; (Species/Cell Type: Mouse, Sex: Male, Assay Type: Sperm morphology, Assay Code: SPI-, Evaluation Type: Evaluation A (Pre-1980)) “inactive; negative”; under setting [7], “no conclusion”.
With `c1ccc2ncccc2c1`, the mutagenic call reads like this: under setting [4], “active; positive”; (Species/Cell Type: Nonhuman, Assay Type: Sister-chromatid exchange (SCE) in vitro, Assay Code: SC2-, Evaluation Type: Evaluation A (Pre-1980)) “inactive; negative”; under setting [6], “active; positive”.
Regarding `[Cl-].[Cl-].[NH2-].[NH2-].[NH2-].[Pt+2]`, the mutagenic call under setting [9] is “active; positive”.
Take `N#Cc1cc(I)c(O)c([N+](=O)[O-])c1`: the mutagenic call under setting [5] is “no conclusion”.
On to `Cc1cc(N)c(N)cc1N`, for which, under setting [8], the mutagenic call is reported as “no conclusion”.
Consider `CCC(=O)Nc1ccc(Cl)c(Cl)c1`, for which the mutagenic call reads like this: (Species/Cell Type: Aspergillus nidulans, Assay Type: Forward gene mutation, Assay Code: ASF-, Evaluation Type: Evaluation A (Pre-1980)) “inactive; negative”; (Species/Cell Type: Bacillus subtilis (H17 vs M45), Assay Type: Rec-assay, spot test, DNA effects (bacterial DNA repair), Assay Code: REW+, Evaluation Type: Evaluation A (Pre-1980)) “active; positive”; (Species/Cell Type: Escherichia coli polA (W3119 vs P3478), Assay Type: Rec-assay, DNA effects (bacterial DNA repair), Assay Code: RE1-, Evaluation Type: Evaluation A (Pre-1980)) “inactive; negative”; (Species/Cell Type: Human diploid fibroblasts, Assay Type: Unscheduled DNA synthesis (UDS) in vitro, DNA effects, Assay Code: UDH-, Evaluation Type: Evaluation A (Pre-1980)) “inactive; negative”; under setting [10], “inactive; negative”; (Species/Cell Type: Salmonella typhimurium (one or more of the five standard strains: TA98, TA100, TA1535, TA1537, and TA1538), Assay Type: Histidine reverse gene mutation, Ames assay, Assay Code: SAL-, Evaluation Type: Evaluation A (Pre-1980)) “inactive; negative”.
Turning to `O[C@@H]1c2cccc3ccc4cc5ccccc5c(c4c23)[C@@H]1O`, the mutagenic call is “inactive; negative” (Species/Cell Type: Chinese hamster lung (V79) cells, Assay Type: Forward gene mutation at the HPRT or ouabain locus, Assay Code: V79-, Evaluation Type: Evaluation A (Pre-1980)) and “no conclusion” under setting [8].
Regarding `C=C(C)[C@H]1O[C@H]2CC[C@@]3(C)[C@@](O)(CC[C@H]4[C@@H]5OC(C)(C)[C@H]6C[C@@H]7C(=C)Cc8c(Cl)cc9[nH]c(c5c9c8[C@@]76O)[C@@]43C)[C@]23O[C@@H]3[C@H]1O`, the mutagenic call reads like this: under setting [10], “inactive; negative”; under setting [8], “no conclusion”.
With `C=COC=C`, the mutagenic call under setting [11] is “active; positive”.
In the case of `CN(C)Cc1cc(Br)ccc1OCC(=O)N/N=C/c1ccccc1O`, the mutagenic call (Species/Cell Type: Saccharomyces cerevisiae, Assay Type: Reverse gene mutation, Assay Code: YERT, Evaluation Type: Evaluation A (Pre-1980)) is recorded as “no conclusion”.
For the compound `CN(C)/N=N/c1nc[nH]c1C(N)=O`, the mutagenic call under setting [9] is “active; positive”; the mutagenic call (Species/Cell Type: Drosophila melanogaster, Assay Type: Sex-linked recessive lethal gene mutation, Assay Code: SRL+, Evaluation Type: Evaluation A (Pre-1980)) was “active; positive”; the mutagenic call (Species/Cell Type: Human lymphocytes, Assay Type: Sister-chromatid exchange (SCE) in vivo, Assay Code: SCY+, Evaluation Type: Evaluation B (Post-1980)) was “active; positive”; the mutagenic call under setting [11] was “active; positive”. Further, the call under setting [3] was “active; positive”.
For `COc1ccc2c(ccc3c4c(ccc32)C(=O)CC4)c1`, the mutagenic call under setting [8] is reported as “no conclusion”.
For the compound `Nc1ccccc1N`, the mutagenic call is “active; positive” (Species/Cell Type: Allium cepa, Assay Type: Chromosome aberrations, Assay Code: ALC+, Evaluation Type: Evaluation A (Pre-1980)); “active; positive” (Species/Cell Type: Mammalian polychromatic erythrocytes, Assay Type: Micronucleus test, chromosome aberrations, Assay Code: MNT+, Evaluation Type: Evaluation B (Post-1980)); “inactive; negative” (Species/Cell Type: Neurospora crassa, Assay Type: Aneuploidy, chromosome aberrations, Assay Code: NEN-, Evaluation Type: Evaluation A (Pre-1980)); “inactive; negative” (Species/Cell Type: Rodents, Sex: Male, Assay Type: Dominant lethal test, Assay Code: DLT-, Evaluation Type: Evaluation A (Pre-1980)).
Regarding `CCNC(=S)NCC`, under “Species/Cell Type: Nonhuman, Assay Code: CCG+L, Evaluation Type: Evaluation A (Pre-1980)”, the call is “active; positive”. Further, under “Species/Cell Type: Syrian hamster embryo (SA7/SHE) cells, Assay Type: Cell transformation, viral enhanced, Assay Code: CT7-, Evaluation Type: Evaluation A (Pre-1980)”, the mutagenic call is “inactive; negative”.
